Our source for the IC50 values is patent US12187702B2, “Sulfonamideurea compounds” (Inflazome Limited, priority 2018, dated 2025).

Assay [1] concerns the target T1, NLRP3 (Homo sapiens, UniProt Q96P20). Put plainly: THP-1 cells pyroptosis assay (LPS + nigericin, resazurin read-out). Details: Seed THP-1 cells (25,000 cells/well) containing 1.0 μg/ml LPS; host or cells: THP-1 cells. Conditions: THP-1 cells, 1 μg/ml LPS, 5 μM nigericin; NLRP3 inhibitory activity; read-out: THP IC50. It counts as cell-based. As to the method: THP-1 cells (ATCC #TIB-202) were grown in RPMI containing L-glutamine (Gibco #11835) supplemented with 1 mM sodium pyruvate (Sigma #S8636) and penicillin (100 units/ml)/streptomycin (0.1 mg/ml) (Sigma #P4333) in 10% Fetal Bovine Serum (FBS) (Sigma #F0804). The cells were routinely passaged and grown to confluency (˜10^6 cells/ml). On the day of the experiment, THP-1 cells were harvested and resuspended into RPMI medium (without FBS). The cells were then counted and viability (>90%) checked by Trypan blue (Sigma #T8154). Appropriate dilutions were made to give a concentration of 625,000 cells/ml. To this diluted cell solution was added LPS (Sigma #L4524) to give a 1 μg/ml Final Assay Concentration (FAC). 40 μl of the final preparation was aliquoted into each well of a 96-well plate. The plate thus prepared was used for compound screening.
The following method step-by-step assay was followed for compound screening. • 1. Seed THP-1 cells (25,000 cells/well) containing 1.0 μg/ml LPS in 40 μl of RPMI medium (without FBS) in 96-well, black walled, clear bottom cell culture plates coated with poly-D-lysine (VWR #734-0317) • 2. Add 5 μl compound (8 points half-log dilution, with 10 μM top dose) or vehicle (DMSO 0.1% FAC) to the appropriate wells • 3. Incubate for 3 hrs at 37° C., 5% CO2 • 4. Add 5 μl nigericin (Sigma #N7143) (FAC 5 μM) to all wells • 5. Incubate for 1 hr at 37° C., 5% CO2 • 6. At the end of the incubation period, spin plates at 300×g for 3 mins and remove supernatant • 7. Then add 50 μl of resazurin (Sigma #R7017) (FAC 100 μM resazurin in RPMI medium without FBS) and incubate plates for a further 1-2 hrs at 37° C. and 5% CO2 • 8. Plates were read in an Envision reader at Ex 560 nm and Em 590 nm • 9. IC50 data is fitted to a non-linear regression equation (log inhibitor vs response-variable slope 4-parameters)
Background: Resazurin is reduced to fluorescent resorufin, in cell work by metabolically active cells.

The target of assay [2] is T1, NLRP3. The experiment in a line: Human whole blood IL-1β release assay (LPS + nigericin, AlphaLisa). It counts as cell-based. Details: Plate out 80 μl of whole blood containing 1 μg/ml of LPS; from tissue; host or cells: human whole blood from healthy donors. Conditions: human whole blood, 1 μg/ml LPS, 10 μM nigericin; IL-1β release; read-out: HWB IC50. As to the method:
For systemic delivery, the ability to inhibit NLRP3 when the compounds are present within the bloodstream is of great importance. For this reason, the NLRP3 inhibitory activity of a number of compounds in human whole blood was investigated in accordance with the following protocol.
Human whole blood in Li-heparin tubes was obtained from healthy donors from a volunteer donor panel. • 1. Plate out 80 μl of whole blood containing 1 μg/ml of LPS in 96-well, clear bottom cell culture plate (Corning #3585) • 2. Add 10 μl compound (8 points half-log dilution with 10 μM top dose) or vehicle (DMSO 0.1% FAC) to the appropriate wells • 3. Incubate for 3 hrs at 37° C., 5% CO2 • 4. Add 10 μl nigericin (Sigma #N7143) (10 μM FAC) to all wells • 5. Incubate for 1 hr at 37° C., 5% CO2 • 6. At the end of the incubation period, spin plates at 300×g for 5 mins to pellet cells and remove 20 μl of supernatant and add to 96-well v-bottom plates for IL-1β analysis (note: these plates containing the supernatants can be stored at −80° C. to be analysed at a later date) • 7. IL-1β was measured according to the manufacturer protocol (Perkin Elmer-AlphaLisa IL-1 Kit AL220F-5000) • 8. IC50 data is fitted to a non-linear regression equation (log inhibitor vs response-variable slope 4-parameters)

Structures can show the parent of a compound that is named as a salt.

T1 sequence (Q96P20 whole entry): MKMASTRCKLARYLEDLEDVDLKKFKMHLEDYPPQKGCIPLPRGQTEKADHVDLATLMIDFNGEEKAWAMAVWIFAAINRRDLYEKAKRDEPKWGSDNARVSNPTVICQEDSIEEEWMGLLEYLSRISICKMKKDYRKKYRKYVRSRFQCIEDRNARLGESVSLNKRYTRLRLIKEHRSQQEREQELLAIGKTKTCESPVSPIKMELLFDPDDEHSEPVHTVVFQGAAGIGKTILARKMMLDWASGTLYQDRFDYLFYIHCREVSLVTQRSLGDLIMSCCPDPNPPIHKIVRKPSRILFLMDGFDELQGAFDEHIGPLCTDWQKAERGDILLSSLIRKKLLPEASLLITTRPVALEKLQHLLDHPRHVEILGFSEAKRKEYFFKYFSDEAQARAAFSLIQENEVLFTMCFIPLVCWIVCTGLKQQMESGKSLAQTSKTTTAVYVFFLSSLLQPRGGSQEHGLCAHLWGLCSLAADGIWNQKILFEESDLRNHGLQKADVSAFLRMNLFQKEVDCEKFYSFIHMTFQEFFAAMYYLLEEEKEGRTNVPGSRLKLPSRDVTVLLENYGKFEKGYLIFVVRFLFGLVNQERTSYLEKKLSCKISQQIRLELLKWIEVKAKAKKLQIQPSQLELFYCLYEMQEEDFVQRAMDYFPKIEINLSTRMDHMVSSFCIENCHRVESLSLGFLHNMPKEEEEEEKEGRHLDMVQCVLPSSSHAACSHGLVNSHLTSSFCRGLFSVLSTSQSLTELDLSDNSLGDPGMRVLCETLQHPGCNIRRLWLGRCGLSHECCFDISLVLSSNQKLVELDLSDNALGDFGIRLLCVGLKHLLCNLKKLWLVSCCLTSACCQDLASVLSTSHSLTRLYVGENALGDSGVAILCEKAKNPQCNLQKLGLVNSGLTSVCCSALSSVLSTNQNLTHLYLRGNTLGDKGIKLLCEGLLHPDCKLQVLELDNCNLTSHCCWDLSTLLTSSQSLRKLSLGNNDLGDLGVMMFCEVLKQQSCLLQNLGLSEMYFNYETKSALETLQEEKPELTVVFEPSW

One may read the IC50 as the concentration needed to halve the response being measured. On to `CN(C)CCN(Cc1ccccc1)S(=O)(=O)NC(=O)Nc1c2c(cc3c1CCC3)CCC2` [Example 10, 3-(N-Benzyl-N-(2-(dimethylamino)ethyl)sulfamoyl)-1-(1,2,3,5,6,7-hexahydro-s-indacen-4-yl)urea, potassium salt], for which the IC50 at NLRP3 [1] and at NLRP3 [2] was below 5000 nM throughout.
Regarding `CN1C2CCC1CN(S(=O)(=O)NC(=O)Nc1c3c(cc4c1CCC4)CCC3)C2` [Example 14, N-((1,2,3,5,6,7-Hexahydro-s-indacen-4-yl)carbamoyl)-8-methyl-3,8-diazabicyclo[3.2.1]octane-3-sulfonamide, potassium salt], the IC50 on NLRP3 [1] and on NLRP3 [2] was below 500 nM in each case.
`CN(C)C1CCCN(S(=O)(=O)NC(=O)Nc2c3c(cc4c2CCC4)CCC3)C1` (centres unmarked) [Example 15, potassium salt]: the IC50 at NLRP3 [1] and at NLRP3 [2] was below 500 nM each time.
In the case of `CN1CCCC1CNS(=O)(=O)NC(=O)Nc1c2c(cc3c1CCC3)CCC2` (centres unmarked) [Example 25, 3-(N-((1-Methylpyrrolidin-2-yl)methyl))sulfamoyl)-1-(1,2,3,5,6,7-hexahydro-s-indacen-4-yl)urea, potassium salt], the IC50 is below 1000 nM at NLRP3 [1] and below 500 nM at NLRP3 [2].
For the compound `CC(C)NCCNS(=O)(=O)NC(=O)Nc1c2c(cc3c1CCC3)CCC2` [Example 26], the 50% inhibitory concentration (IC50) on NLRP3 [1] was below 500 nM; on NLRP3 [2] it was below 1000 nM.
The like results for `CC(C)NCCN(C(C)C)S(=O)(=O)NC(=O)Nc1c2c(cc3c1CCC3)CCC2` [Example 28, 3-(N-Isopropyl-N-(2-(isopropylamino)ethyl))sulfamoyl)-1-(1,2,3,5,6,7-hexahydro-s-indacen-4-yl)urea, potassium salt] were, in that order, below 500 nM and below 500 nM.
Consider `CC(C)N1C2CCC1CN(S(=O)(=O)NC(=O)Nc1c3c(cc4c1CCC4)CCC3)C2` [Example 29, N-((1,2,3,5,6,7-Hexahydro-s-indacen-4-yl)carbamoyl)-8-isopropyl-3,8-diazabicyclo[3.2.1]octane-3-sulfonamide, potassium salt], for which the IC50 at NLRP3 [1] and on NLRP3 [2] was below 500 nM each time.
On to `CC(CNS(=O)(=O)NC(=O)Nc1c2c(cc3c1CCC3)CCC2)N(C)C` (centres unmarked) [Example 30, 3-(N-(2-(Dimethylamino)propyl))sulfamoyl)-1-(1,2,3,5,6,7-hexahydro-s-indacen-4-yl)urea, potassium salt], for which the 50% inhibitory concentration (IC50) is below 1000 nM at NLRP3 [1] and below 500 nM at NLRP3 [2].
The like results for `CN1CCC1CNS(=O)(=O)NC(=O)Nc1c2c(cc3c1CCC3)CCC2` (centres unmarked) [Example 31, 3-(N-((1-Methylazetidin-2-yl)methyl))sulfamoyl)-1-(1,2,3,5,6,7-hexahydro-s-indacen-4-yl)urea, potassium salt] were, in that order, below 500 nM and below 500 nM.
As to `CN1CC(NS(=O)(=O)NC(=O)Nc2c3c(cc4c2CCC4)CCC3)C1` [Example 34, 3-(N-(1-Methylazetidin-3-yl))sulfamoyl)-1-(1,2,3,5,6,7-hexahydro-s-indacen-4-yl)urea, potassium salt], the IC50 on NLRP3 [1] and on NLRP3 [2] was below 500 nM throughout.
For `O=C(Nc1c2c(cc3c1CCC3)CCC2)NS(=O)(=O)NCCN1CCC1` [Example 35, 3-(N-(2-(Azetidin-1-yl)ethyl)sulfamoyl)-1-(1,2,3,5,6,7-hexahydro-s-indacen-4-yl)urea, potassium salt], the results for the IC50 at NLRP3 [1] and on NLRP3 [2] were below 5000 nM and below 1000 nM, respectively.
On to `CN1CC2CCC(C1)N2S(=O)(=O)NC(=O)Nc1c2c(cc3c1CCC3)CCC2` [Example 37, N-((1,2,3,5,6,7-Hexahydro-s-indacen-4-yl)carbamoyl)-3-methyl-3,8-diazabicyclo[3.2.1]octane-8-sulfonamide, potassium salt], for which the IC50 at NLRP3 [1] is below 500 nM; on NLRP3 [2] it was below 1000 nM.
Turning to `CC(C)N1CC2CCC(C1)N2S(=O)(=O)NC(=O)Nc1c2c(cc3c1CCC3)CCC2` [Example 38, N-((1,2,3,5,6,7-Hexahydro-s-indacen-4-yl)carbamoyl)-3-isopropyl-3,8-diazabicyclo[3.2.1]octane-8-sulfonamide, potassium salt], the half-maximal inhibitory concentration (IC50) at NLRP3 [1] is below 500 nM; on NLRP3 [2] it was below 1000 nM.
In the case of `CCN(CCN(C)C)S(=O)(=O)NC(=O)Nc1c2c(cc3c1CCC3)CCC2` [Example 39, 3-(N-(2-(Dimethylamino)ethyl)-N-ethylsulfamoyl))-1-(1,2,3,5,6,7-hexahydro-s-indacen-4-yl)urea, potassium salt], the IC50 on NLRP3 [1] was below 500 nM; on NLRP3 [2], below 1000 nM.
Take `CCN(CC)CCNS(=O)(=O)NC(=O)Nc1c2c(cc3c1CCC3)CCC2` [Example 40, 3-(N-(2-(Diethylamino)ethyl)sulfamoyl))-1-(1,2,3,5,6,7-hexahydro-s-indacen-4-yl)urea, potassium salt]: the figures for the IC50 at NLRP3 [1] and at NLRP3 [2] were below 1000 nM and below 500 nM, respectively.
Regarding `CN1C[C@H]2C[C@@H]1CN2S(=O)(=O)NC(=O)Nc1c2c(cc3c1CCC3)CCC2` [Example 43, (1R,4R)—N-((1,2,3,5,6,7-Hexahydro-s-indacen-4-yl)carbamoyl)-5-methyl-2,5-diazabicyclo[2.2.1]heptane-2-sulfonamide, potassium salt], the IC50 on NLRP3 [1] and at NLRP3 [2] was below 500 nM each time.
Take `CN1CCC(NS(=O)(=O)NC(=O)Nc2c3c(cc4c2CCC4)CCC3)C1` (centres unmarked) [Example 44, 3-(N-(1-Methylpyrrolidin-3-yl))sulfamoyl)-1-(1,2,3,5,6,7-hexahydro-s-indacen-4-yl)urea, potassium salt]: the IC50 at NLRP3 [1] was below 1000 nM; at NLRP3 [2] it was below 500 nM.
For the compound `C#CCCC1(CCNS(=O)(=O)NC(=O)Nc2c3c(cc4c2CCC4)CCC3)N=N1` [Example 45, 3-(N-(2-(3-(but-3-yn-1-yl)-3H-diazirin-3-yl)ethyl))sulfamoyl)-1-(1,2,3,5,6,7-hexahydro-s-indacen-4-yl)urea, potassium salt], the IC50 was below 500 nM on NLRP3 [1] and below 10000 nM on NLRP3 [2].
The corresponding values for `O=C(Nc1c2c(cc3c1CCC3)CCC2)NS(=O)(=O)N1CC(N2CCC2)C1` [Example 46, N-((1,2,3,5,6,7-Hexahydro-s-indacen-4-yl)carbamoyl)-[1,3′-biazetidine]-1′-sulfonamide, potassium salt] are below 1000 nM and below 5000 nM.
As for `CCN1CCC1CNS(=O)(=O)NC(=O)Nc1c2c(cc3c1CCC3)CCC2` (centres unmarked) [Example 47, 3-(N-((1-Ethylazetidin-2-yl)methyl)sulfamoyl)-1-(1,2,3,5,6,7-hexahydro-s-indacen-4-yl)urea, potassium salt], the IC50 at NLRP3 [1] and on NLRP3 [2] was below 1000 nM throughout.
On to `CCN(CC)C1CCN(S(=O)(=O)NC(=O)Nc2c3c(cc4c2CCC4)CCC3)C1` (centres unmarked) [Example 49, 3-(3-((Diethylamino)pyrrolidine)-1-sulfamoyl)-1-(1,2,3,5,6,7-hexahydro-s-indacen-4-yl)urea, potassium salt], for which the IC50 at NLRP3 [1] and on NLRP3 [2] was below 500 nM in each case.
With `CC(C)N1CCC1CNS(=O)(=O)NC(=O)Nc1c2c(cc3c1CCC3)CCC2` (centres unmarked) [Example 50, 3-(N-((1-Isopropylazetidin-2-yl)methyl)sulfamoyl)-1-(1,2,3,5,6,7-hexahydro-s-indacen-4-yl)urea, potassium salt], the IC50 at NLRP3 [1] and at NLRP3 [2] was below 500 nM each time.
